# Key:
# [1] = tested on: Hepatitis C virus; assay: Antiviral activity against HCV genotype 1b by cell-based luciferase reporter gene assay; type: functional, organism-based, Hepacivirus hominis
# [2] = Inhibition of HCV genotype 1b NS5B delta21 polymerase; design: species or system Hepatitis C virus subtype 1b
# [3] = Permeability across apical to basolateral side in human Caco2 cells; type: ADME, cell-based; settings: Caco-2, read-out: permeability
# [4] = Lipophilicity, log D of the compound at pH 7.4; type: physicochemical; settings: buffer
# [5] = Half life in rat liver microsomes at 2 uM; type: ADME
# [6] = Solubility of the compound at pH 2 after 24 hrs by shake-flask method; type: physicochemical; settings: buffer, pH 2, 24 h
# [7] = Dissociation constant, pKa of the compound; type: physicochemical
# [8] = Half life in human liver microsomes at 2 uM; type: ADME
Compound,EC50 [1] [µM],IC50 [2] [µM],further results
O=C(O)c1ccc(Oc2ccccc2)cc1NS(=O)(=O)c1ccc(Br)cc1F,> 30,0.31,–
Cc1ccc(S(=O)(=O)Nc2ccc(Oc3ccccc3)cc2C(=O)O)cc1,> 30,0.22,–
CC(C)N(c1ccc(Oc2ccccc2C(F)(F)F)cc1C(=O)O)C(=O)[C@H]1CC[C@H](C)CC1,–,0.19,Papp A→B [3]: 150 nm/s; logD [4]: 2.9; half-life at 2 µM [5]: 1.3 h; solubility [6]: < 0.1 µg/mL; pKa [7]: 5.5
CC(C)N(c1ccc(Oc2ncccc2C(F)(F)F)cc1C(=O)O)C(=O)[C@H]1CC[C@H](C)CC1,–,0.08,half-life at 2 µM [8]: 1.15 h; half-life at 2 µM [5]: 1 h; solubility [6]: < 0.1 µg/mL
CC(C)N(c1cc(Oc2ccccc2C(F)(F)F)ccc1C(=O)O)C(=O)[C@H]1CC[C@H](C)CC1,4.5,1.3,–
Cc1cccc(Oc2ccc(C(=O)O)c(NS(=O)(=O)c3ccc(Br)s3)c2)c1,–,1.1,–
Cc1ccccc1Oc1ccc(C(=O)O)c(NS(=O)(=O)c2ccc(Br)s2)c1,–,1.5,–
CC(C)N(C(=O)c1ccc(Br)cc1F)c1cc(Oc2ccccc2)ccc1C(=O)O,> 10,1.4,–
CC(C)N(c1cc(Oc2ccccc2)ccc1C(=O)O)C(=O)[C@H]1CC[C@H](C)CC1,11,0.74,–
CC(C)N(c1ccc(Oc2ccccc2OC(F)(F)F)cc1C(=O)O)C(=O)[C@H]1CC[C@H](C)CC1,2.8,0.74,–
CC(C)N(c1ccc(Oc2ccccc2C(C)(F)F)cc1C(=O)O)C(=O)[C@H]1CC[C@H](C)CC1,0.62,0.3,–
CC(C)N(c1ccc(Oc2ccccc2C(F)F)cc1C(=O)O)C(=O)[C@H]1CC[C@H](C)CC1,1.1,0.2,–
CC(C)N(c1ccc(Oc2ccncc2C(F)(F)F)cc1C(=O)O)C(=O)[C@H]1CC[C@H](C)CC1,0.17,0.19,–
CC(C)N(c1cc(OC2CCCC2)ccc1C(=O)O)C(=O)[C@H]1CC[C@H](C)CC1,> 50,> 40,–
Cc1ccc(Oc2ccc(NS(=O)(=O)c3ccc(C)cc3)c(C(=O)O)c2)cc1,> 30,0.78,–
Cc1ccc(S(=O)(=O)Nc2ccc(Oc3ccccc3C(F)(F)F)cc2C(=O)O)cc1,7.3,0.27,Papp A→B [3]: 36 nm/s; half-life at 2 µM [8]: 0.2 h
Cc1ccc(S(=O)(=O)Nc2ccc(Oc3ccccc3OC(F)(F)F)cc2C(=O)O)cc1,7,0.37,–

# Continued by falling IC50 [2], values first:
EC50 [1] [µM],IC50 [2] [µM],Compound,further results
> 40,4.3,CC[C@H]1CC[C@H](C(=O)N(c2cc(Oc3ccccc3)ccc2C(=O)O)C(C)C)CC1,–
> 30,3,O=C(O)c1ccc(Oc2ccccc2C(F)(F)F)cc1NS(=O)(=O)c1ccc(Br)s1,–
–,2.9,CC(=O)Nc1ccc(Oc2ccc(C(=O)O)c(NS(=O)(=O)c3ccc(Br)s3)c2)cc1,–
–,2.2,O=C(O)c1ccc(Oc2ccc(C(=O)O)c(NS(=O)(=O)c3ccc(Br)s3)c2)cc1,–
16,2,CC(C)N(c1ccc(Oc2ccccc2)cc1C(=O)O)C(=O)[C@H]1CC[C@H](C(F)(F)F)CC1,–
–,1.9,Cc1ccc(Oc2ccc(C(=O)O)c(NS(=O)(=O)c3ccc(Br)s3)c2)cc1,–
> 10,1.64,CC(C)N(C(=O)c1ccc(Br)cc1F)c1ccc(Oc2ccccc2)cc1C(=O)O,–
–,1.4,O=C(O)c1cccc(Oc2ccc(C(=O)O)c(NS(=O)(=O)c3ccc(Br)s3)c2)c1,–
25,1.3,CC[C@H]1CC[C@H](C(=O)N(c2ccc(Oc3ccccc3)cc2C(=O)O)C(C)C)CC1,–
16,1.3,CC(C)N(c1cc(Oc2ccccc2)ccc1C(=O)O)C(=O)[C@H]1CC[C@H](C(F)(F)F)CC1,–
5,0.67,CC(C)N(c1ccc(Oc2ccccc2)cc1C(=O)O)C(=O)[C@H]1CC[C@H](C)CC1,–
> 25,0.61,O=C(O)c1ccc(Oc2ccccc2)cc1NS(=O)(=O)c1ccc(Br)s1,–
> 30,0.53,Cc1ccc(S(=O)(=O)Nc2ccc(Oc3ccccc3C)cc2C(=O)O)cc1,–
6.3,0.47,CC(C)N(c1ccc(Oc2cccc(C(F)(F)F)c2)cc1C(=O)O)C(=O)[C@H]1CC[C@H](C)CC1,–
> 30,0.47,Cc1ccc(S(=O)(=O)Nc2ccc(Oc3cccc(C)c3)cc2C(=O)O)cc1,–
1,0.46,CC(C)N(c1ccc(OC2CCCC2)cc1C(=O)O)C(=O)[C@H]1CC[C@H](C)CC1,–
4.9,0.45,CC(C)N(c1ccc(Oc2ccccc2Br)cc1C(=O)O)C(=O)[C@H]1CC[C@H](C)CC1,–
> 30,0.34,O=C(O)c1cc(Oc2ccccc2)ccc1NS(=O)(=O)c1ccc(Br)cc1F,–
4.3,0.33,CC(C)N(c1ccc(Oc2ccccc2C2CC2)cc1C(=O)O)C(=O)[C@H]1CC[C@H](C)CC1,–
> 30,0.33,Cc1ccc(S(=O)(=O)Nc2ccc(Oc3cccc(C(=O)O)c3)cc2C(=O)O)cc1,–
30,0.29,CC(=O)Nc1ccc(Oc2ccc(NS(=O)(=O)c3ccc(C)cc3)c(C(=O)O)c2)cc1,–
8.6,0.21,Cc1ccc(S(=O)(=O)Nc2ccc(OC3CCCC3)cc2C(=O)O)cc1,–
> 30,0.16,Cc1ccc(S(=O)(=O)Nc2cc(Oc3ccccc3)ccc2C(=O)O)cc1,–
> 30,0.085,Cc1ccc(S(=O)(=O)Nc2ccc(Oc3ccc(C(=O)O)cc3)cc2C(=O)O)cc1,–

# Reference: ChEMBL document CHEMBL3091398, “Anthranilic acid-based Thumb Pocket 2 HCV NS5B polymerase inhibitors with sub-micromolar potency in the cell-based replicon assay” (Bioorg Med Chem Lett, 2013)
